Assay results reported in ChEMBL document CHEMBL4138123, “Design, synthesis and biological evaluation of novel pyrazolochalcones as potential modulators of PI3K/Akt/mTOR pathway and inducers of apoptosis in breast cancer cells” (Eur J Med Chem, 2017).

What was measured:
Type in all cases: functional
[1] = system: CCRF-CEM; test: Cytotoxicity against human CCRF-CEM cells assessed as growth inhibition after 48 hrs by sulforhodamine B assay
[2] = system: HOP-62; test: Cytotoxicity against human HOP62 cells assessed as growth inhibition after 48 hrs by sulforhodamine B assay; conditions: HOP-62, 48 h
[3] = system: NCI-H23; test: Cytotoxicity against human NCI-H23 cells assessed as growth inhibition after 48 hrs by sulforhodamine B assay; conditions: NCI-H23, 48 h; for CC50: read-out: LC50 (the source's name)
[4] = system: SF-268; test: Cytotoxicity against human SF268 cells assessed as growth inhibition after 48 hrs by sulforhodamine B assay; conditions: SF-268, 48 h; for CC50: read-out: LC50 (the source's name)
[5] = system: MDA-MB-468; test: Cytotoxicity against human MDA-MB-468 cells assessed as growth inhibition after 48 hrs by sulforhodamine B assay; conditions: MDA-MB-468, 48 h
[6] = system: SW-620; test: Cytotoxicity against human SW620 cells assessed as cell growth at 0.01 uM after 48 hrs by sulforhodamine B assay relative to control; conditions: SW-620, 48 h, read-out: Activity
[7] = system: RPMI-8226; test: Cytotoxicity against human RPMI8226 cells assessed as cell growth at 0.01 uM after 48 hrs by sulforhodamine B assay relative to control; conditions: RPMI-8226, 48 h, read-out: Activity
[8] = system: MCF7; test: Cytotoxicity against human MCF7 cells assessed as cell growth at 0.01 uM after 48 hrs by sulforhodamine B assay relative to control; conditions: MCF7, 48 h, read-out: Activity
[9] = system: U-251; test: Cytotoxicity against human U251 cells assessed as cell growth at 0.1 uM after 48 hrs by sulforhodamine B assay relative to control; conditions: U-251, 48 h, read-out: Activity
[10] = system: OVCAR-3; test: Cytotoxicity against human OVCAR3 cells assessed as cell growth at 0.1 uM after 48 hrs by sulforhodamine B assay relative to control; conditions: OVCAR-3, 48 h, read-out: Activity
[11] = system: UO-31; test: Cytotoxicity against human UO31 cells assessed as cell growth at 0.1 uM after 48 hrs by sulforhodamine B assay relative to control; conditions: UO-31, 48 h, read-out: Activity
[12] = system: T47D; test: Cytotoxicity against human T47D cells assessed as cell growth at 0.1 uM after 48 hrs by sulforhodamine B assay relative to control; conditions: read-out: Activity
[13] = system: MOLT-4; test: Cytotoxicity against human MOLT4 cells assessed as cell growth at 1 uM after 48 hrs by sulforhodamine B assay relative to control; conditions: MOLT-4, 48 h, read-out: Activity
[14] = system: SR; test: Cytotoxicity against human SR cells assessed as cell growth at 1 uM after 48 hrs by sulforhodamine B assay relative to control; conditions: read-out: Activity
[15] = system: HCT-15; test: Cytotoxicity against human HCT15 cells assessed as cell growth at 1 uM after 48 hrs by sulforhodamine B assay relative to control; conditions: HCT-15, 48 h, read-out: Activity
[16] = system: OVCAR-3; test: Cytotoxicity against human OVCAR3 cells assessed as cell growth at 1 uM after 48 hrs by sulforhodamine B assay relative to control; conditions: OVCAR-3, 48 h, read-out: Activity
[17] = system: 786-0; test: Cytotoxicity against human 786-0 cells assessed as cell growth at 1 uM after 48 hrs by sulforhodamine B assay relative to control; conditions: 786-0, 48 h, read-out: Activity
[18] = system: MDA-MB-231; test: Cytotoxicity against human MDA-MB-231 cells assessed as cell growth at 1 uM after 48 hrs by sulforhodamine B assay relative to control; conditions: MDA-MB-231, 48 h, read-out: Activity
[19] = system: Hs-578T; test: Cytotoxicity against human Hs 578T cells assessed as cell growth at 1 uM after 48 hrs by sulforhodamine B assay relative to control; conditions: read-out: Activity
[20] = system: HL-60(TB); test: Cytotoxicity against human HL-60(TB) cells assessed as cell growth at 10 uM after 48 hrs by sulforhodamine B assay relative to control; conditions: HL-60, 48 h, read-out: Activity
[21] = system: HOP-62; test: Cytotoxicity against human HOP62 cells assessed as cell growth at 10 uM after 48 hrs by sulforhodamine B assay relative to control; conditions: HOP-62, 48 h, read-out: Activity
[22] = system: NCI-H23; test: Cytotoxicity against human NCI-H23 cells assessed as cell growth at 10 uM after 48 hrs by sulforhodamine B assay relative to control; conditions: NCI-H23, 48 h, read-out: Activity
[23] = system: NCI-H322M; test: Cytotoxicity against human NCI-H322M cells assessed as cell growth at 10 uM after 48 hrs by sulforhodamine B assay relative to control; conditions: read-out: Activity
[24] = system: NCI-H460; test: Cytotoxicity against human NCI-H460 cells assessed as cell growth at 10 uM after 48 hrs by sulforhodamine B assay relative to control; conditions: NCI-H460, 48 h, read-out: Activity
[25] = system: KM12; test: Cytotoxicity against human KM12 cells assessed as cell growth at 10 uM after 48 hrs by sulforhodamine B assay relative to control; conditions: KM12, 48 h, read-out: Activity
[26] = system: SNB-19; test: Cytotoxicity against human SNB19 cells assessed as cell growth at 10 uM after 48 hrs by sulforhodamine B assay relative to control; conditions: SNB-19, 48 h, read-out: Activity
[27] = system: M14; test: Cytotoxicity against human M14 cells assessed as cell growth at 10 uM after 48 hrs by sulforhodamine B assay relative to control; conditions: M14, 48 h, read-out: Activity
[28] = system: SK-MEL-28; test: Cytotoxicity against human SK-MEL-28 cells assessed as cell growth at 10 uM after 48 hrs by sulforhodamine B assay relative to control; conditions: SK-MEL-28, 48 h, read-out: Activity
[29] = system: PC-3; test: Cytotoxicity against human PC3 cells assessed as cell growth at 10 uM after 48 hrs by sulforhodamine B assay relative to control; conditions: PC-3, 48 h, read-out: Activity
[30] = system: CCRF-CEM; test: Cytotoxicity against human CCRF-CEM cells assessed as cell growth at 100 uM after 48 hrs by sulforhodamine B assay relative to control; conditions: read-out: Activity
[31] = system: NCI-H522; test: Cytotoxicity against human NCI-H522 cells assessed as cell growth at 100 uM after 48 hrs by sulforhodamine B assay relative to control; conditions: NCI-H522, 48 h, read-out: Activity
[32] = system: SW-620; test: Cytotoxicity against human SW620 cells assessed as cell growth at 100 uM after 48 hrs by sulforhodamine B assay relative to control; conditions: SW-620, 48 h, read-out: Activity
[33] = system: IGROV-1; test: Cytotoxicity against human IGROV1 cells assessed as cell growth at 100 uM after 48 hrs by sulforhodamine B assay relative to control; conditions: IGROV-1, 48 h, read-out: Activity
[34] = system: SN12C; test: Cytotoxicity against human SN12C cells assessed as cell growth at 100 uM after 48 hrs by sulforhodamine B assay relative to control; conditions: read-out: Activity

Q: What does the source list for `COc1ccc(-c2cc(/C=C/C(=O)c3ccc(OC)c(OC)c3)[nH]n2)cc1`?
A: GI50 [1]: 1.34 µM; LC50 (concentration killing 50% of cells) [1]: > 100 µM; TGI [1]: 4.14 µM; GI50 [2]: 2.35 µM; LC50 [2]: 35.3 µM; TGI [2]: 6.17 µM; GI50 [3]: 2.47 µM; TGI [3]: 6.33 µM; CC50 [3]: 34.1 µM; GI50 [4]: 1.94 µM; TGI [4]: 4.82 µM; CC50 [4]: 27.3 µM; GI50 [5]: 1.22 µM; LC50 [5]: 7.12 µM; TGI [5]: 2.94 µM; growth at 0.01 µM [6]: 99%; growth at 0.01 µM [7]: 106%; growth at 0.01 µM [8]: 91%; growth at 0.1 µM [9]: 84%; growth at 0.1 µM [10]: 104%; growth at 0.1 µM [11]: 87%; growth at 0.1 µM [12]: 92%; growth at 1 µM [13]: 95%; growth at 1 µM [14]: 39%; growth at 1 µM [15]: 65%; growth at 1 µM [16]: 62%; growth at 1 µM [17]: 86%; growth at 1 µM [18]: 79%; growth at 1 µM [19]: 81%; growth at 10 µM [20]: -21%; growth at 10 µM [21]: -25%; growth at 10 µM [22]: -24%; growth at 10 µM [23]: -32%; growth at 10 µM [24]: -43%; growth at 10 µM [25]: -72%; growth at 10 µM [26]: -31%; growth at 10 µM [27]: -42%; growth at 10 µM [28]: -95%; growth at 10 µM [29]: -61%; growth at 100 µM [30]: -47%; growth at 100 µM [31]: -81%; growth at 100 µM [32]: -55%; growth at 100 µM [33]: -84%; growth at 100 µM [34]: -86%

Q: `COc1cc(C(=O)/C=C/c2cc(-c3ccc4c(c3)OCO4)n[nH]2)cc(OC)c1OC` was tested. Which GI50 [1] did it give?
A: Its GI50 is 2 µM.

Q: And the LC50 (concentration killing 50% of cells) [1]?
A: The LC50 (concentration killing 50% of cells) was over 100 µM.

Q: And the TGI [1]?
A: Its TGI is 5.74 µM.

Q: What about the GI50 [2] of the same molecule?
A: Its GI50 is 2.33 µM.

Q: And the LC50 [2]?
A: The LC50 was 24.5 µM.

Q: And the TGI [2]?
A: Its TGI is 6.24 µM.

Q: And the GI50 [3]?
A: Its GI50 is 2.9 µM.

Q: And the TGI [3]?
A: The TGI was 10.3 µM.

Q: And the CC50 [3]?
A: The CC50 was 40.3 µM.

Q: And the GI50 [4]?
A: The GI50 was 2.45 µM.

Q: What about the TGI [4] of the same molecule?
A: The TGI was 7.64 µM.

Q: And the CC50 [4]?
A: The CC50 was 31.2 µM.

Q: What about the GI50 [5] of the same molecule?
A: Its GI50 is 1.4 µM.

Q: And the LC50 [5]?
A: The LC50 was 8.78 µM.

Q: What about the TGI [5] of the same molecule?
A: The TGI was 3.5 µM.

Q: What about the growth at 0.01 µM [6] of the same molecule?
A: The growth at 0.01 µM was 98%.

Q: What about the growth at 0.01 µM [7] of the same molecule?
A: Its growth at 0.01 µM is 101%.

Q: What about the growth at 0.01 µM [8] of the same molecule?
A: The growth at 0.01 µM was 89%.

Q: What about the growth at 0.1 µM [9] of the same molecule?
A: Its growth at 0.1 µM is 96%.

Q: And the growth at 0.1 µM [10]?
A: The growth at 0.1 µM was 100%.

Q: What about the growth at 0.1 µM [11] of the same molecule?
A: The growth at 0.1 µM was 82%.

Q: What about the growth at 0.1 µM [12] of the same molecule?
A: The growth at 0.1 µM was 77%.

Q: And the growth at 1 µM [13]?
A: Its growth at 1 µM is 94%.

Q: What about the growth at 1 µM [14] of the same molecule?
A: The growth at 1 µM was 56%.

Q: And the growth at 1 µM [15]?
A: Its growth at 1 µM is 77%.

Q: And the growth at 1 µM [16]?
A: The growth at 1 µM was 87%.

Q: And the growth at 1 µM [17]?
A: Its growth at 1 µM is 98%.

Q: What about the growth at 1 µM [18] of the same molecule?
A: The growth at 1 µM was 83%.

Q: What about the growth at 1 µM [19] of the same molecule?
A: The growth at 1 µM was 90%.

Q: And the growth at 10 µM [20]?
A: Its growth at 10 µM is -20%.

Q: What about the growth at 10 µM [21] of the same molecule?
A: The growth at 10 µM was -24%.

Q: And the growth at 10 µM [22]?
A: Its growth at 10 µM is 1%.

Q: What about the growth at 10 µM [23] of the same molecule?
A: The growth at 10 µM was -22%.

Q: What about the growth at 10 µM [24] of the same molecule?
A: Its growth at 10 µM is -67%.

Q: And the growth at 10 µM [25]?
A: The growth at 10 µM was -66%.

Q: What about the growth at 10 µM [26] of the same molecule?
A: Its growth at 10 µM is 7%.

Q: What about the growth at 10 µM [27] of the same molecule?
A: The growth at 10 µM was -4%.

Q: What about the growth at 10 µM [28] of the same molecule?
A: Its growth at 10 µM is -56%.

Q: And the growth at 10 µM [29]?
A: Its growth at 10 µM is -46%.

Q: What about the growth at 100 µM [30] of the same molecule?
A: Its growth at 100 µM is -20%.

Q: What about the growth at 100 µM [31] of the same molecule?
A: The growth at 100 µM was -94%.

Q: What about the growth at 100 µM [32] of the same molecule?
A: The growth at 100 µM was -65%.

Q: And the growth at 100 µM [33]?
A: Its growth at 100 µM is -90%.

Q: And the growth at 100 µM [34]?
A: The growth at 100 µM was -96%.
